Experimental data as given in US20240148747A1, “SMALL MOLECULE ACTIVATORS OF YAP TRANSCRIPTIONAL ACTIVITY FOR REGENERATIVE ORGAN REPAIR” (THE SCRIPPS RESEARCH INSTITUTE, priority 2021, published 2024).
Where two headings read alike, the source gives them in different places.

Columns and labels:
YAP = assay: TEAD-LUC activation assay (293A-TEAD-LUC reporter); type: cell-based; details: Homo sapiens, read-out: TEAD-LUC activation assay EC50
Description: More specifically, we used a 293A cell line harboring a stably integrated cassette containing 8 copies of the TEAD binding element upstream of luciferase (8xGTII-LUC). These cells retain responsiveness to contact inhibition-induced decreases in YAP transcriptional output.^6 The TEAD-responsive reporter assay (called 293A-TEAD-LUC throughout) was adapted to 1536-well format and then used to screen a library of ˜738k compounds for YAP-inducing activity.
Additional compounds of the present disclosure were subjected to the assay described above.

[1] = Cytotoxicity in the TEAD-LUC activation assay; details: human

Row | SMILES | EC50 (YAP; Table 3) [µM] | EC50 (YAP; Table 4) [µM] | IC50 [1] [µM]
1 | O=C(NCCCn1ccnn1)c1cc(-c2cccnc2)on1 [Compound 78] | > 20 |  | > 20
2 | O=C(NCCCn1ccnn1)c1cc(-c2ccc(F)c(F)c2)on1 [Compound 79] | > 20 |  | > 20
3 | O=C(NCCCn1ccnn1)c1cc(-c2cc(F)cc(F)c2)on1 [Compound 80] | > 20 |  | > 20
4 | O=C(NCCCn1ccnn1)c1cc(-c2ccc(Cl)cc2)on1 [Compound 81] | > 20 |  | > 20
5 | O=C(NCCCn1ccnn1)c1cc(-c2cncnc2)on1 [Compound 82] | > 20 |  | > 20
6 | O=C(NCCNc1ccccc1)c1cc(-c2ccccc2)on1 [Compound 83] | > 20 |  | > 20
7 | O=C(NCCCc1nccs1)c1n[nH]c2ccccc12 [Compound 84] | > 20 |  | > 20
8 | O=C(NCCCNc1ccccc1F)c1cc(-c2ccccc2)on1 [Compound 85] | > 20 |  | > 20
9 | O=C(NCCCc1nccs1)c1cc(-c2c(F)cc(F)cc2F)on1 [Compound 86] | > 20 |  | > 20
10 | O=C(NCCCc1nccs1)c1ncoc1-c1ccccc1 [Compound 87] | > 20 |  | > 20
11 | O=C(NCCCc1nccs1)c1nc2ccccc2o1 [Compound 88] | > 20 |  | > 20
12 | O=C(NCCCc1nccs1)c1cncc(C(F)(F)F)c1 [Compound 92] | > 20 |  | > 20
13 | O=C(NCCn1cccc1)c1n[nH]c2ccccc12 [Compound 93] | > 20 |  | > 20
14 | Cc1cncc(C(=O)NCCCc2nccs2)c1 [Compound 96] | > 20 |  | > 20
15 | O=C(NCCCn1ccnn1)c1n[nH]c2ccccc12 [Compound 97] | > 20 |  | > 20
16 | O=C(NCCc1nccs1)c1cc(-c2c(F)cccc2F)on1 [Compound 98] | > 20 |  | > 20
17 | O=C(NCCCn1cccc1)c1n[nH]c2ccccc12 [Compound 101] | > 20 |  | > 20

Row | SMILES | EC50 (YAP; Table 3) [µM] | EC50 (YAP; Table 4) [µM] | IC50 [1] [µM]
18 | O=C(NCCCc1nccs1)c1ncc(-c2ccccc2)o1 [Compound 102] | > 20 |  | > 20
19 | O=C(NCCCc1nccs1)c1noc(-c2ccccc2)n1 [Compound 103] | > 20 |  | > 20
20 | O=C(N[C@H]1C[C@@H]1n1cccc1)c1cc(-c2ccccc2)on1 [Compound 104] | > 20 |  | > 20
21 | O=C(NCCCc1nccs1)c1cc(C(F)(F)F)ncn1 [Compound 105] | > 20 |  | > 20
22 | S=C(NCCn1cccc1)c1cc(-c2ccccc2)on1 [Compound 106, N-(2-(1H-pyrrol-1-yl)ethyl)-5-phenylisoxazole-3-carbothioamide] | > 20 |  | > 20
23 | CC(C)(CO)NC(=O)c1cc(-c2ccccc2)on1 [Compound 107] |  | > 20 | > 20
24 | Cc1ccc(C2CCCN2C(=O)c2cc(-c3ccc4c(c3)OCO4)on2)cc1 (centres unmarked) [Compound 108] |  | > 20 | > 20
25 | COc1ccccc1-c1cc(C(=O)N2CCCC2c2cc(C)no2)no1 (centres unmarked) [Compound 109] |  | > 20 | > 20
26 | O=C(NCCCn1cccc1)c1cc(-c2ccccc2)on1 [Compound 110] |  | 1.02 | > 20
27 | O=C(NCCCn1cccn1)c1cc(-c2ccccc2)on1 [Compound 111] |  | 1.6 | > 20
28 | O=C(NCCCN1CCOCC1)c1cc(-c2ccccc2)on1 [Compound 112] |  | 6.71 | > 20
29 | O=C(NCCCn1cncn1)c1cc(-c2ccccc2)on1 [Compound 113] |  | 3.25 | > 20
30 | O=C(NCCCn1ccnc1)c1cc(-c2ccccc2)on1 [Compound 114] |  | 2.97 | > 20
31 | O=C(c1cc(-c2ccccc2)on1)N1CCC(n2cccc2)CC1 [Compound 115] |  | > 20 | > 20
32 | Cc1ccc(-c2cc(C(=O)NCCC(=O)NC(C)C)no2)cc1C [Compound 116] |  | > 20 | 1
33 | CCN(CC)CCCNC(=O)c1cc(-c2ccc(Cl)cc2)on1 [Compound 117] |  | > 20 | > 20
34 | CCN1CCN(C(CNC(=O)c2cc(-c3ccccc3)on2)c2ccc(OC)cc2)CC1 (centres unmarked) [Compound 118] |  | > 20 | > 20

Second part, led by results:

Row | EC50 (YAP; Table 3) [µM] | EC50 (YAP; Table 4) [µM] | SMILES | IC50 [1] [µM]
35 | > 20 |  | CS(=O)(=O)c1ccc(-c2cc(C(=O)NCCCc3nccs3)no2)cc1 [Compound 39] | > 20
36 | > 20 |  | O=C(NCCCc1nccs1)c1cc(-c2ccc(-c3ccccc3)cc2)on1 [Compound 40] | > 20
37 | 3.38 |  | COC(=O)N1CCN(CCCNC(=O)c2cc(-c3ccccc3)on2)CC1 [Compound 41] | > 20
38 | > 20 |  | NS(=O)(=O)c1ccc(-c2cc(C(=O)NCCCc3nccs3)no2)cc1 [Compound 42] | > 20
39 | > 20 |  | CC(C)(CNC(=O)c1cc(-c2ccccc2)on1)C(F)(F)F [Compound 43] | > 20
40 | > 20 |  | CC(C)(NC(=O)c1cc(-c2ccccc2)on1)C(F)(F)F [Compound 44] | > 20
41 | 3.17 |  | O=C(NC1CC(OC(F)F)C1)c1cc(-c2ccccc2)on1 (centres unmarked) [Compound 45] | > 20
42 | > 20 |  | CC(F)(F)C(C)(C)NC(=O)c1cc(-c2ccccc2)on1 [Compound 46] | > 20
43 | > 20 |  | O=C(NCCc1ccc(Cl)c(F)c1)c1cc(-c2ccccc2)on1 [Compound 47] | 15
44 | > 20 |  | Cc1ccc(CCNC(=O)c2cc(-c3ccccc3)on2)cc1 [Compound 48] | > 20
45 | > 20 |  | O=C(NCCc1c[nH]c2ccccc12)c1cc(-c2ccccc2)on1 [Compound 49] | > 20
46 | > 20 |  | C[C@H](NC(=O)c1cc(-c2ccccc2)on1)c1ccccc1 [Compound 50] | > 20
47 | > 20 |  | CC(C)(C)SCCNC(=O)c1cc(-c2ccccc2)on1 [Compound 51] | > 20
48 | > 20 |  | CN(CCC#N)C(=O)c1cc(-c2ccccc2)on1 [Compound 52] | > 20
49 | > 20 |  | COc1cccc(CCNC(=O)c2cc(-c3ccccc3)on2)c1 [Compound 53] | > 20
50 | > 20 |  | O=C(NCc1cccs1)c1cc(-c2ccccc2)on1 [Compound 54] | > 20
51 | > 20 |  | O=C(NCCc1cccc(F)c1)c1cc(-c2ccccc2)on1 [Compound 55] | > 20
52 | > 20 |  | O=C(NC12CC(C(F)(F)F)(C1)C2)c1cc(-c2ccccc2)on1 [Compound 56] | > 20
53 | > 20 |  | O=C(NC12CC(F)(C1)C2)c1cc(-c2ccccc2)on1 [Compound 57] | > 20
54 | > 20 |  | CN(C)CCN(C)C(=O)c1cc(-c2ccccc2)on1 [Compound 58] | > 20
55 | 3.58 |  | CC(C)(C)OC(=O)NCCNC(=O)c1cc(-c2ccccc2)on1 [Compound 59] | > 20
56 | > 20 |  | CN(CC(F)F)C(=O)c1cc(-c2ccccc2)on1 [Compound 60] | 12
57 | 2.36 |  | CSCCNC(=O)c1cc(-c2ccccc2)on1 [Compound 61] | > 20

Row | EC50 (YAP; Table 3) [µM] | EC50 (YAP; Table 4) [µM] | SMILES | IC50 [1] [µM]
58 | > 20 |  | C[C@@H](NC(=O)c1cc(-c2ccccc2)on1)c1ccccc1 [Compound 62] | > 20
59 | 7.58 |  | O=C(NCC(F)(F)F)c1cc(-c2ccccc2)on1 [Compound 63] | > 20
60 | > 20 |  | CC(CNC(=O)c1cc(-c2ccccc2)on1)c1ccc(Cl)cc1 (centres unmarked) [Compound 64] | > 20
61 | > 20 |  | O=C(NCCc1ccc(Cl)c(Cl)c1)c1cc(-c2ccccc2)on1 [Compound 65] | > 20
62 | > 20 |  | CN(CCO)C(=O)c1cc(-c2ccccc2)on1 [Compound 66] | > 20
63 | > 20 |  | C[C@H](NC(=O)c1cc(-c2ccccc2)on1)c1ccc(Cl)cc1 [Compound 67] | > 20
64 | > 20 |  | O=C(NCCc1ccc(F)c(Cl)c1)c1cc(-c2ccccc2)on1 [Compound 68] | > 20
65 | > 20 |  | O=C(NCCc1cccc(C(F)(F)F)c1)c1cc(-c2ccccc2)on1 [Compound 69] | > 20
66 | 5 |  | O=C(NCCCn1ccnn1)c1cc(-c2ccc(F)cc2)on1 [Compound 70] | > 20
67 | 5 |  | O=C(NCCCn1ccnn1)c1cc(-c2ccccc2F)on1 [Compound 71] | > 20
68 | > 20 |  | Cc1ccc(-c2cc(C(=O)NCCCn3ccnn3)no2)cc1 [Compound 72] | > 20
69 | > 20 |  | COc1ccc(-c2cc(C(=O)NCCCn3ccnn3)no2)cc1 [Compound 73] | > 20
70 | 15 |  | O=C(NCCCn1ccnn1)c1cc(-c2cccc(F)c2)on1 [Compound 74] | > 20
71 | 10 |  | O=C(NCCCn1ccnn1)c1cc(-c2ccc(F)cc2F)on1 [Compound 75] | > 20
72 | > 20 |  | O=C(NCCCn1ccnn1)c1cc(-c2ccc(C(F)(F)F)cc2)on1 [Compound 76] | > 20
73 | > 20 |  | O=C(NCCCn1ccnn1)c1cc(-c2ccc(OC(F)(F)F)cc2)on1 [Compound 77] | > 20
74 | 10 |  | O=C(NCCCc1nccs1)c1cc(-c2ccc(F)cc2F)on1 [Compound 89] | > 20
75 | 2.5 |  | O=C(NCCc1nccs1)c1cc(-c2ccccc2)on1 [Compound 90] | > 20
76 | 15 |  | O=C(NCCCc1nccs1)c1cc(C(F)(F)F)ccn1 [Compound 91] | > 20
77 | 1 |  | O=C(NCCCc1nccs1)c1cc(-c2c(F)cccc2F)on1 [Compound 94] | > 20
78 | 2.5 |  | O=C(NCCCNc1cccc(F)c1)c1cc(-c2ccccc2)on1 [Compound 95] | > 20
79 | 10 |  | O=C(NCCCN1CCOCC1)c1cc(-c2ccccc2F)on1 [Compound 100] | > 20
